In patent US20230263742A1, “A LIPID” (Stemirna Therapeutics Co., Ltd., priority 2021, published 2023):

Assays:
[1] = Encapsulation efficiency (RIBOGREEN kit); type: physicochemical; conditions: Luc mRNA-LNP 50:10:38.5:1.5
Experimental: For nanoparticle compositions including an RNA, a QUANT-IT™ RIBOGREENR®RNA assay (Invitrogen Corporation Carlsbad, Calif.) can be used to evaluate the encapsulation of an RNA by the nanoparticle composition. The samples were diluted to a concentration of approximately 5 μg/mL in a TE buffer solution (10 mM Tris-HCl, 1 mM EDTA, pH 7.5). 50 μL of the diluted samples are transferred to a polystyrene 96 well plate and either 50 μL of TE buffer or 50 μL of a 2% Triton X-100 solution is added to the wells. The plate is incubated at a temperature of 37° C. for 15 minutes. The RIBOGREENR reagent is diluted 1:100 in TE buffer and 100 μL of this solution is added to each well. The fluorescence intensity can be measured using a fluorescence plate reader (Wallac Victor 1420 Multilablel Counter; Perkin Elmer, Waltham, Mass.) at an excitation wavelength of, for example, about 480 nm and an emission wavelength of, for example, about 520 nm. The fluorescence values of the reagent blank are subtracted from that of each of the samples and the percentage of free RNA is determined by dividing the fluorescence intensity of the intact sample (without addition of Triton X-100) by the fluorescence value of the disrupted sample (caused by the addition of Triton X-100).
Encapsulation efficiency detection method: LNP content and encapsulation efficiency detection were carried out according to the RIBOGREEN kit.

Balb/C mice [2] = assay: In vivo Luc expression after tail vein injection of Luc mRNA-LNP; conditions: 5 μg Luc mRNA-LNP tail vein, 6 hours
Experimental: In vivo expression evaluation method: 5 μg Luc (luciferase) mRNA-LNP solution of SW-II-118, SW-120, or SW-121 were injected into the tail vein of Balb/C mice. 6 hours after the administration, the mice are injected 0.15 mg/kg of […] substrate intraperitoneally. Within 15 minutes after the injection of the substrate, the fluorescence signal intensity was tested under a small animal in vivo imaging instrument.

A20 cells = assay: In vitro cell Luc expression, A20; type: cell-based; conditions: 100 ng Luc mRNA-LNP, 24 h
Experimental: In vitro cell expression evaluation method: C2C12 cells, HepG2 cells, A20 cells were cultured, and 100,000 cells per well were plated on a 96-well plate. 100 ng of LNP samples were mixed with the cells and incubated for 24 hours (n=3), and then the expression was detected using luciferase quantitative kit 24 h after administration.

Balb/C mice [3] = assay: Luc expression in injection site and liver site after intramuscular administration (Example 5); type: in vivo; conditions: 5 μg Luc mRNA-LNP (DSPC) intramuscularly, Balb/C mice n=3, 6 h
Experimental: Further bioluminescence studies were performed to investigate the delivery efficiency of nanoparticle compositions including various lipid compounds according to the present invention. The formulations containing reference cationic lipid M62, M63, M118, and M119 (corresponding to Compound 62, 63, 118, and 119 in PCT/US2018/022717 (WO2018/170306), respectively) were evaluated for comparison. Nanoparticle compositions including DSPC as an optimized phospholipid, cholesterol as a structural lipid, PEG-DMG as a PEG lipid, an RNA, and a compound above mentioned were prepared according to or via methods similar to those described in Examples 1 and 2. The ratios of the lipids were 50:10:38.5:1.5 mol % for the lipid of the present invention: DSPC: cholesterol: PEG-DMG. 5 μg of LNP solution containing luciferase mRNA was administered intramuscularly to Balb/C mice (n=3). 6 hours after administration, mice were injected intraperitoneally with 0.15 mg/kg of D-luciferin substrate. Within 15 minutes after the injection of the substrate, the fluorescence signal intensity in injection site and liver site were tested under a small animal in vivo imaging instrument. Tables 3-4 summarize the fluorescence signal intensity of the nanoparticle compositions including present invention lipids and the reference compounds in injection site and liver site.

cells = assay: Cytotoxicity, CCK-8 cell viability; type: cell-based; conditions: 200 ng LNP, 24 h, CCK-8, vs cells blank
Experimental: Evaluation method of cytotoxicity: 200 ng of LNP samples were mixed with cells and incubated for 24 h, then the viability was detected using CCK-8 cell viability detection kit. 10 μl of CCK-8 detection reagent was added to the transfected cells and the OD value was detected using a microplate reader at a detection wavelength of 450 nm. The cell viability percentage is obtained by comparing the OD value with that of the cells blank.

[4] = Particle size, PDI and zeta potential by dynamic light scattering; type: physicochemical; conditions: for PDI / Zeta potential: Luc mRNA-LNP 50:10:38.5:1.5; for Size: Luc mRNA-LNP, lipid:phospholipid:cholesterol:PEG-DMG 50:10:38.5:1.5
Experimental: A Zetasizer Nano ZS (Malvern Instruments Ltd, Malvern, Worcestershire, UK) can be used to determine the particle size, the polydispersity index (PDI) and the zeta (ζ) potential of the nanoparticle compositions in 1×PBS in determining particle size and 15 mM PBS in determining zeta (ζ) potential.
The evaluation method of particle size and zeta potential: 50 μL LNP sample was diluted with 950 μL purified water to obtain the diluted LNP sample. The sample was placed in a dynamic light scattering laser particle size analyzer (Malvern, ZS-90) for testing.

## CCCCCCCCC(CCCCCCCC)OC(=O)CCCCCCCN(CCO)CCCCCCCC(=O)OCCc1ccc(CCCC)cc1 [SW-II-118]
[1]; phospholipid DAPC
  Encapsulation Efficiency (EE, %): 86.4%
[1]; phospholipid DMPE
  Encapsulation Efficiency (EE, %): 86.2%
[1]; phospholipid DOPE
  Encapsulation Efficiency (EE, %): 87.5%
[1]; phospholipid DPPC
  Encapsulation Efficiency (EE, %): 83.4%
[1]; phospholipid DSPC
  Encapsulation Efficiency (EE, %): 76.0%
[1]; phospholipid DSPE
  Encapsulation Efficiency (EE, %): 81.0%
Balb/C mice [2]; phospholipid DAPC
  In vivo expression: 8658333.3 p/sec/cm^2/sr
Balb/C mice [2]; phospholipid DMPE
  In vivo expression: 23780.0 p/sec/cm^2/sr
Balb/C mice [2]; phospholipid DOPE
  In vivo expression: 38066666.7 p/sec/cm^2/sr
Balb/C mice [2]; phospholipid DPPC
  In vivo expression: 34323333.3 p/sec/cm^2/sr
Balb/C mice [2]; phospholipid DPPE
  In vivo expression: 25176.7 p/sec/cm^2/sr
Balb/C mice [2]; phospholipid DSPC
  In vivo expression: 40156666.7 p/sec/cm^2/sr
Balb/C mice [2]; phospholipid DSPE
  In vivo expression: 25383333.3 p/sec/cm^2/sr
A20 cells; phospholipid DAPC
  A20 cell, in vitro expression: 5337
A20 cells; phospholipid DMPE
  A20 cell, in vitro expression: 34438
A20 cells; phospholipid DOPE
  A20 cell, in vitro expression: 2295
A20 cells; phospholipid DPPC
  A20 cell, in vitro expression: 12326.5
A20 cells; phospholipid DPPE
  A20 cell, in vitro expression: 1627.5
A20 cells; phospholipid DSPC
  A20 cell, in vitro expression: 9068
A20 cells; phospholipid DSPE
  A20 cell, in vitro expression: 3748
Balb/C mice [3]
  Luc expression in injection site, I.M. injection site, 6 h (ratio relative to SW-II-134-3 set as 1): 1.450
  Luc expression in liver site, Liver site upon I.M., 6 h (ratio relative to SW-II-137-1 set as 1): 2.234
cells; phospholipid DAPC
  Viability (%): 104.0%
cells; phospholipid DMPE
  Viability (%): 110.8%
cells; phospholipid DOPE
  Viability (%): 98.7%
cells; phospholipid DPPC
  Viability (%): 105.4%
cells; phospholipid DPPE
  Viability (%): 162.7%
cells; phospholipid DSPC
  Viability (%): 103.0%
cells; phospholipid DSPE
  Viability (%): 113.9%
[4]; phospholipid DAPC
  PDI: 0.28 ± 0.03
  Zeta potential: −7.18 ± 0.42 mV
  Size: 93.8 ± 1.6 nm
[4]; phospholipid DMPE
  PDI: 0.29 ± 0.01
  Zeta potential: −1.59 ± 0.19 mV
  Size: 102.8 ± 2.3 nm
[4]; phospholipid DOPE
  PDI: 0.10 ± 0.04
  Zeta potential: −4.31 ± 1.36 mV
  Size: 111.3 ± 2.0 nm
[4]; phospholipid DPPC
  PDI: 0.26 ± 0.06
  Zeta potential: −2.32 ± 0.32 mV
  Size: 97.3 ± 2.6 nm
[4]; phospholipid DPPE
  PDI: 0.54 ± 0.41
  Zeta potential: −0.80 ± 0.58 mV
  Size: 265.7 ± 306.1 nm
[4]; phospholipid DSPC
  PDI: 0.37 ± 0.02
  Zeta potential: −1.65 ± 0.58 mV
  Size: 108.7 ± 2.5 nm
[4]; phospholipid DSPE
  PDI: 0.21 ± 0.01
  Zeta potential: −11.97 ± 1.19 mV
  Size: 103.4 ± 2.0 nm
